# Earlier results as cited in US7799357B2, “In vitro resveratrol-rich callus tissues derived from Vitis thunbergii Sieb. et Zucc and method for producing the same” (Tatung Company, priority 2007, dated 2010).
# Tested on: Nothobranchius furzeri
# Conditions: short-lived fish Nothobranchius furzeri
structure (smiles),measurement,setting,value
"Oc1ccc(/C=C/c2cc(O)cc(O)c2)cc1 [Resveratrol, 3,5,4′-trihydroxystilbene]",extension of maximum lifespan,maximum lifespan,59%
same,extension of median lifespan,median lifespan,56%
